# Assay results from patent US6420367B1, “Pyrimidine derivatives exhibiting antitumor activity” (Shionogo & Co., Ltd., priority 1998, dated 2002).
# How the values were obtained:
# [1] = test system: DT-R cells (pRRE3-luc-transfected v-ki-ras-transformed NIH3T3 cells); signal derived from Ras oncogene products; assay: Inhibitory effect against cellular signaling derived from Ras oncogene products: luciferase reporter, dissociation of DT-R from DT-C activity (MAC); type: cell-based, mouse; settings: minimal tested concentration at which luciferase activities of DT-C cells and DT-R cells dissociated
# Text: Test Example 1 Inhibitory Effect Against Cellular Signaling Derived From Ras Oncogene Products
# 1) Establishment of Cell Lines Used in Assay
# Based on the reporter plasmid (pGV-P (Toyo Ink, Japan)), in which luciferase gene was ligated to SV40-derived minimal promoter, we constructed a plasmid designated pRRE3-luc by inserting 3 copies of chemically synthesized oligonucleotides (Sequence: CAGGATATGACTCT, derived from mouse NVL-3 (M. A. Reddy et al.(1992)Mol. Endocrinol., 6, 1051)) into upstream of the promoter. v-ki-ras-transformed NIH3T3 cells (DT cells, provided by Dr. Makoto Noda (Kyoto Univ., School of medicine)) were transfected with this plasmid by liposome-mediated transfection and transfected cell lines stably incorporated and maintained each plasmid were obtained. We named pGV-P and pRRE3-transfected cell line as DT-C and DT-R, respectively and used in the assay described below.
# 2) Preparation of Samples
# i) All the cell lines were cultured in Dulbecco's Modified Essential Medium (DMEM: 10% Fetal Calf Serum(FCS: Hyclone, USA)) including […] kanamycin (Meiji Seika, Japan) in humidified incubator under condition of 5% CO2 at 37° C.
# ii) DT-C and DT-R cells were seeded at 2500 cells/well into flat-bottom 96 well multiplate (Sumitomo bakelite) and incubated for 24 hours.
# iii) Test compounds were prepared as 1 mg/ml DMSO solution.
# iv) The solution of test compounds were added to the culture. Tested compounds are used at the concentration from […] to 0.51 ng/ml with by 3-fold dilution.
# v) After 24 hours, the culture supernatant was completely aspirated and […] of cell-lysing solution (PGC-50 (Toyo Ink, Japan)) was added before cells were dried up. In order to the cells were lysed completely, multiwell plates were left at room temperature for 10 to 30 min. The plates were wrapped up and stored at −20° C. till the day of measurement.
# 3) Measurement of Samples
# i) Melt the samples by putting 96 well multiplate at 37° C. and add 90 μl/well 25 mM Tris (pH 7.5).
# ii) Transfer 50 μl of the sample (110 μl) to the 96 well microplate for measurement (Microlite 1 (Dynatech)).
# iii) Measure the samples by the luminometer, LUMINOUS CT9000D (Dia-Yatron, Japan). We used Pickagene luminescence kit PGL2000 or LT2.0 (Toyo Ink, Japan) as substrates for luminescence measurement (50 μl/well).
# 4) Judgment of the Results
# i) The luciferase activity of DT-C cells and DT-R cells were plotted in the graph where the relative activity and the compound concentration were expressed as Y-axis and X-axis, respectively. We judged by the degree of dissociation between the activities of DT-C cells and DT-R cells as an index.
# ii) Concretely, efficacy of the compound was expressed by two values described below.
# a) Among the points of concentration tested, the minimal concentration (Minimal Active Concentration: MAC), at which the activities of DT-C cells and DT-R cells dissociated, was shown as an index of efficacy of the compound.
# [2] = test system: human squamous lung cancer RERF-RC-AI; assay: In vitro cell growth inhibition test, MTT assay; type: cell-based; settings: MTT assay 4 days after compound addition
# Text: (§1) Test Example 2 In Vitro Cell Growth Inhibition Test Cells and MTT Assay
# (§2) Human squamous lung cancer […], human squamous lung cancer Ma44, human lung adenocarcinoma A549, human colon cancer HT29 and human pancreas cancer PANC-1 were used.
# [3] = test system: human squamous lung cancer Ma44; assay: In vitro cell growth inhibition test, MTT assay; type: cell-based; settings: MTT assay 4 days after compound addition
# Text: as §1, §2
# [4] = test system: human lung adenocarcinoma A549; assay: In vitro cell growth inhibition test, MTT assay; type: cell-based; settings: MTT assay 4 days after compound addition
# Text: as §1, §2
# human colon cancer HT29 = assay: In vitro cell growth inhibition test, MTT assay; type: cell-based; settings: MTT assay 4 days after compound addition
# Text: as §1, §2
# [5] = test system: human pancreas cancer PANC-1; assay: In vitro cell growth inhibition test, MTT assay; type: cell-based; settings: MTT assay 4 days after compound addition
# Text: as §1, §2
"IC50, RERF-LC-AI [2]","IC50, Ma44 [3]","IC50, A549 [4]","IC50, HT29 (human colon cancer HT29)","IC50, PANC-1 [5]",Compound,MAC (Minimal Active Concentration) [1]
1.5 ng/mL,3.8 ng/mL,7.5 ng/mL,3.3 ng/mL,3.1 ng/mL,CCNC(=Nc1ncncc1CSc1nnc(-c2ccc([N+](=O)[O-])cc2)o1)NCC [Compound A-172],0.0137 µg/mL
3.7 ng/mL,7.2 ng/mL,17 ng/mL,6 ng/mL,7.2 ng/mL,CNC(=Nc1ncncc1CSc1nnc(-c2ccc([N+](=O)[O-])cc2)o1)NC [Compound A-173],0.123 µg/mL
3.2 ng/mL,18 ng/mL,12 ng/mL,6 ng/mL,5.6 ng/mL,CCNC(=Nc1ncncc1CSc1nnc(-c2ccc(N)cc2)o1)NC [Compound A-176],0.123 µg/mL
2 ng/mL,4.3 ng/mL,8.2 ng/mL,3.7 ng/mL,3.8 ng/mL,CCNC(=Nc1ncncc1CSc1nnc(-c2ccc([N+](=O)[O-])cc2)o1)NC [Compound A-177],0.0412 µg/mL
3.6 ng/mL,24 ng/mL,14 ng/mL,6.7 ng/mL,5 ng/mL,CCCNC(=Nc1ncncc1CSc1nnc(-c2ccc(N)cc2)o1)NCC [Compound A-178],0.0412 µg/mL
2 ng/mL,2.6 ng/mL,14 ng/mL,6.3 ng/mL,1.8 ng/mL,CCCNC(=Nc1ncncc1CSc1nnc(-c2ccc([N+](=O)[O-])cc2)o1)NCC [Compound A-179],0.0137 µg/mL
8 ng/mL,16 ng/mL,14 ng/mL,12 ng/mL,8.1 ng/mL,CCCCNC(=Nc1nc(C)ncc1CSc1nnc(-c2ccc(N)cc2)o1)NCC [Compound A-180],0.00457 µg/mL
5.1 ng/mL,6.5 ng/mL,8.7 ng/mL,6.1 ng/mL,5.7 ng/mL,C=CCNC(=Nc1nc(C)ncc1CSc1nnc(-c2ccc([N+](=O)[O-])cc2)o1)NCC [Compound A-181],0.0137 µg/mL
1.3 ng/mL,2.1 ng/mL,3.9 ng/mL,2 ng/mL,2.6 ng/mL,C#CCNC(=Nc1nc(C)ncc1CSc1nnc(-c2ccc([N+](=O)[O-])cc2)o1)NCC [Compound A-183],0.00457 µg/mL
2.7 ng/mL,16 ng/mL,10 ng/mL,7.7 ng/mL,3.2 ng/mL,CCNC(N)=Nc1nc(C)ncc1CSc1nnc(-c2ccc(N)cc2)o1 [Compound A-184],0.0412 µg/mL
2.9 ng/mL,6.2 ng/mL,13 ng/mL,6.4 ng/mL,4.1 ng/mL,CCNC(N)=Nc1nc(C)ncc1CSc1nnc(-c2ccc([N+](=O)[O-])cc2)o1 [Compound A-185],0.0137 µg/mL
12 ng/mL,16 ng/mL,52 ng/mL,10 ng/mL,17 ng/mL,CCCNC(=Nc1nc(C)ncc1CSc1nnc(-c2ccc([N+](=O)[O-])cc2)o1)NCC.Cl [Compound A-188],0.0137 µg/mL
